Assay results: ChEMBL document CHEMBL4002558, “Characterization of a Bioactive Acyclotide from Palicourea rigida” (J Nat Prod, 2016)
Positions of bridges follow the written chain, without caps; N, C: chain ends. Residues, ends and D or L forms follow the SMILES beside them.

The molecules below were run on MCF7 (assay: Cytotoxicity against human MCF7 cells assessed as decrease in cell viability at 10 uM after 72 hrs by MTT assay). Conditions: MCF7, 72 h.
Type: functional, cell-based
Molecule CC[C@H](C)[C@@H]1NC(=O)[C@@H]2CSSC[C@@H](C(=O)N[C@@H](Cc3ccc(O)cc3)C(=O)N[C@@H](CCCNC(=N)N)C(=O)N[C@@H](CC(=O)O)C(=O)O)NC(=O)[C@H](C(C)C)NC(=O)[C@H](CCCCN)NC(=O)[C@H](CC(N)=O)NC(=O)[C@H](CCCCN)NC(=O)[C@H]3CSSC[C@H](NC(=O)[C@H](CO)NC(=O)[C@H](CCC(=O)O)NC(=O)CNC(=O)[C@@H](NC(=O)[C@@H]4CCCN4C(=O)[C@@H](NC(=O)[C@@H](NC(=O)CN)C(C)C)[C@@H](C)CC)CSSC[C@@H](NC(=O)CNC(=O)[C@H](CC(C)C)NC(=O)[C@H](C(C)C)NC(=O)[C@H](CO)NC(=O)[C@H](CO)NC1=O)C(=O)N[C@@H](CO)C(=O)N3)C(=O)N[C@@H](C(C)C)C(=O)N[C@@H](Cc1ccccc1)C(=O)N[C@@H]([C@@H](C)CC)C(=O)N1CCC[C@H]1C(=O)N2 has an IC50 of 0.64 µM.
With CC(C)C[C@H](NC(=O)[C@@H](N)CCCCN)C(=O)N[C@H]1CSSC[C@@H]2NC(=O)[C@H](CO)NC(=O)[C@H](CS)NC(=O)CNC(=O)[C@@H]3CCCN3C(=O)[C@H]([C@@H](C)O)NC(=O)[C@H](Cc3ccc(O)cc3)NC(=O)[C@@H]3CSSC[C@@H](C(=O)N[C@@H](CCCCN)C(=O)O)NC(=O)[C@H](Cc4ccccc4)NC(=O)[C@@H]4CCCN4C(=O)[C@H](Cc4ccc(O)cc4)NC(=O)[C@H](CO)NC(=O)[C@H](CSSC[C@H](NC(=O)[C@H]([C@@H](C)O)NC(=O)[C@H](CCC(=O)O)NC(=O)CNC1=O)C(=O)N[C@@H](Cc1ccccc1)C(=O)N[C@@H](CCCCN)C(=O)N[C@@H](Cc1ccccc1)C(=O)N[C@@H](CCCCN)C(=O)N3)NC(=O)[C@H](CO)NC2=O (H-KLCGETCFKFKCYTPGCSCSCSYPFCK-OH; disulfide 3-19, 7-21, 12-26) the IC50 was 2.98 µM.
In the case of CC[C@H](C)[C@H](NC(=O)CN)C(=O)N[C@@H](C)C(=O)N[C@H]1CSSC[C@H]2NC(=O)CNC(=O)[C@@H]3CCCN3C(=O)[C@H]([C@@H](C)CC)NC(=O)[C@H](Cc3ccccc3)NC(=O)[C@@H]3CSSC[C@@H](C(=O)N[C@@H](Cc4ccc(O)cc4)C(=O)N[C@@H](Cc4ccccc4)C(=O)N[C@@H](CC(N)=O)C(=O)O)NC(=O)[C@H](C(C)C)NC(=O)[C@H](CCCCN)NC(=O)[C@H](CO)NC(=O)[C@H](CCCCN)NC(=O)[C@H](CSSC[C@H](NC(=O)[C@H](CO)NC(=O)[C@H](CCC(=O)O)NC(=O)CNC1=O)C(=O)N[C@@H](C(C)C)C(=O)N[C@@H](Cc1ccccc1)C(=O)N[C@@H](CC(C)C)C(=O)NCC(=O)N3)NC(=O)[C@H](CO)N2, the IC50 is reported as 7.77 µM.
